Assay results as given in the NIST ThermoML archive (doi:10.1016/j.jct.2016.03.026).

Experiment: xn = mol fraction of the nth substance listed
Conditions: 304.21 K, Fluid (supercritical or subcritical phases), Vibrating tube method, x1 = 0.97

O=C=O [carbon dioxide] + CO
Conditions | mass density [kg/m3]
10625 kPa | 791.47
10650 kPa | 791.91
10675 kPa | 792.32
10700 kPa | 792.79
10725 kPa | 793.26
10750 kPa | 793.67
10775 kPa | 794.08
10800 kPa | 794.49
10825 kPa | 794.91
10850 kPa | 795.38
10875 kPa | 795.84
10900 kPa | 796.21
10925 kPa | 796.66
10950 kPa | 797.06
10975 kPa | 797.53
11000 kPa | 797.93
11025 kPa | 798.32
11050 kPa | 798.73
11075 kPa | 799.17
11100 kPa | 799.63
11125 kPa | 799.99
11150 kPa | 800.45
11175 kPa | 800.8
11200 kPa | 801.23
11225 kPa | 801.64
11250 kPa | 802.05
11275 kPa | 802.5
11300 kPa | 802.86
11325 kPa | 803.31
11350 kPa | 803.73
11375 kPa | 804.09
11400 kPa | 804.56
11425 kPa | 804.93
11450 kPa | 805.27
11475 kPa | 805.69
11500 kPa | 806.12
11525 kPa | 806.52
11550 kPa | 806.91
11575 kPa | 807.3
11600 kPa | 807.66
11625 kPa | 808.01
11650 kPa | 808.41
11675 kPa | 808.81
11700 kPa | 809.25
11725 kPa | 809.62
11750 kPa | 810
11775 kPa | 810.37
11800 kPa | 810.74
11825 kPa | 811.11
11850 kPa | 811.47
11875 kPa | 811.83
11900 kPa | 812.25
11925 kPa | 812.53
11950 kPa | 812.98
11975 kPa | 813.33
12000 kPa | 813.7
12025 kPa | 814.08
12050 kPa | 814.43
12075 kPa | 814.76
12100 kPa | 815.17
12125 kPa | 815.5
12150 kPa | 815.82
12175 kPa | 816.22
12200 kPa | 816.54
12225 kPa | 816.89
12250 kPa | 817.23
12275 kPa | 817.54
12300 kPa | 817.94
12325 kPa | 818.27
12350 kPa | 818.61
12375 kPa | 818.95
12400 kPa | 819.29
12425 kPa | 819.62
12450 kPa | 819.95
12475 kPa | 820.29
12500 kPa | 820.61
12525 kPa | 820.93
12550 kPa | 821.24
12575 kPa | 821.61
12600 kPa | 821.94
12625 kPa | 822.23
12650 kPa | 822.53
12675 kPa | 822.85
12700 kPa | 823.18
12725 kPa | 823.45
12750 kPa | 823.79
12775 kPa | 824.13
12800 kPa | 824.43
12825 kPa | 824.72
12850 kPa | 825.02
12875 kPa | 825.36
12900 kPa | 825.66
12925 kPa | 825.97
12950 kPa | 826.28
12975 kPa | 826.52
13000 kPa | 826.85
13025 kPa | 827.19
13050 kPa | 827.45
13075 kPa | 827.74
13100 kPa | 828.02
13125 kPa | 828.34
13150 kPa | 828.59
13175 kPa | 828.91
13200 kPa | 829.21
13225 kPa | 829.5
13250 kPa | 829.81
13275 kPa | 830.06
13300 kPa | 830.33
13325 kPa | 830.63
13350 kPa | 830.91
13375 kPa | 831.19
13400 kPa | 831.47
13425 kPa | 831.75
13450 kPa | 832.03
13475 kPa | 832.3
13500 kPa | 832.56
13525 kPa | 832.83
13550 kPa | 833.09
13575 kPa | 833.35
13600 kPa | 833.6
13625 kPa | 833.85
13650 kPa | 834.12
13675 kPa | 834.42
13700 kPa | 834.66
13725 kPa | 834.9
13750 kPa | 835.2
13775 kPa | 835.42
13800 kPa | 835.64
13825 kPa | 835.86
13850 kPa | 836.06
13875 kPa | 836.22
13900 kPa | 836.51
13925 kPa | 836.81
13950 kPa | 837.08
13975 kPa | 837.35
14000 kPa | 837.64
14025 kPa | 837.92
14050 kPa | 838.19
14075 kPa | 838.5
14100 kPa | 838.78
14125 kPa | 839.03
14150 kPa | 839.31
14175 kPa | 839.62
14200 kPa | 839.87
14225 kPa | 840.12
14250 kPa | 840.43
14275 kPa | 840.68
14300 kPa | 840.92
14325 kPa | 841.24
14350 kPa | 841.49
14375 kPa | 841.72
14400 kPa | 842.04
14425 kPa | 842.27
14450 kPa | 842.52
14475 kPa | 842.78
14500 kPa | 843.08
14525 kPa | 843.34
14550 kPa | 843.58
14575 kPa | 843.9
14600 kPa | 844.14
14625 kPa | 844.38
14650 kPa | 844.61
14675 kPa | 844.86
14700 kPa | 845.17
14725 kPa | 845.44
14750 kPa | 845.72
14775 kPa | 845.96
14800 kPa | 846.19
14825 kPa | 846.5
14850 kPa | 846.73
14875 kPa | 846.98
14900 kPa | 847.24
14925 kPa | 847.52
14950 kPa | 847.71
14975 kPa | 848
15000 kPa | 848.29
15025 kPa | 848.51
15050 kPa | 848.76
15075 kPa | 849.02
15100 kPa | 849.3
15125 kPa | 849.56
15150 kPa | 849.76
15175 kPa | 850.04
15200 kPa | 850.3
15225 kPa | 850.56
15250 kPa | 850.76
15275 kPa | 851.04
15300 kPa | 851.23
15325 kPa | 851.51
15350 kPa | 851.79
15375 kPa | 851.98
15400 kPa | 852.22
15425 kPa | 852.43
15450 kPa | 852.7
15475 kPa | 852.92
15500 kPa | 853.2
15525 kPa | 853.4
15550 kPa | 853.64
15575 kPa | 853.89
15600 kPa | 854.15
15625 kPa | 854.39
15650 kPa | 854.57
15675 kPa | 854.81
15700 kPa | 855.06
15725 kPa | 855.3
15750 kPa | 855.49
15775 kPa | 855.71
15800 kPa | 855.96
15825 kPa | 856.2
15850 kPa | 856.41
15875 kPa | 856.68
15900 kPa | 856.93
15925 kPa | 857.08
15950 kPa | 857.32
15975 kPa | 857.56
16000 kPa | 857.77
16025 kPa | 857.95
16050 kPa | 858.19
16075 kPa | 858.44
16100 kPa | 858.66
16125 kPa | 858.84
16150 kPa | 859.07
16175 kPa | 859.32
16200 kPa | 859.52
16225 kPa | 859.74
16250 kPa | 859.97
16275 kPa | 860.2
16300 kPa | 860.35
16325 kPa | 860.63
16350 kPa | 860.83
16375 kPa | 861.01
16400 kPa | 861.22
16425 kPa | 861.43
16450 kPa | 861.65
16475 kPa | 861.85
16500 kPa | 862.01
16525 kPa | 862.21
16550 kPa | 862.42
16575 kPa | 862.62
16600 kPa | 862.9
16625 kPa | 863.08
16650 kPa | 863.26
16675 kPa | 863.56
